Consider five compounds from ChEMBL document CHEMBL1155035, “Cyathuscavins A, B, and C, new free radical scavengers with DNA protection activity from the Basidiomycete Cyathus stercoreus” (Bioorg Med Chem Lett, 2008).

pEC50: −log10 of the molar value. Calls of active or inactive are those of the source. The rule behind the calls is not given here. Some results are limits rather than exact numbers.

Assay [1] can be described thus: Protective effect against Fe2+/H2O2 radical-induced supercoiled DNA breakage at 1 mM.
Assay [2] has as its system Radical scavenging activity. Put plainly: Antioxidant activity assessed as DPPH radical scavenging activity after 10 mins. The format is functional.
The nature of assay [3]: Antioxidant activity assessed as superoxide radical anion scavenging activity after 8 mins. Format: functional.
The nature of assay [4]: Antioxidant activity assessed as ABTS radical scavenging activity after 12 hrs. The format is functional.

What is called pEC50 is the negative decadic logarithm of the EC50, by convention in mol/L. Turning to `C/C=C/c1cc2c(c(=O)o1)-c1c(O)c(O)c(OC)c(C(=O)O)c1C(O)O2` (stereo not drawn) [CYATHUSCAVIN C], the Activity in assay [1] was determined as 70%. The pEC50 in assay [2] was 4.71; in assay [4], 5.15. Moreover, in assay [3], the outcome was inactive.

With `C/C=C/c1cc2c(c(=O)o1)-c1c(O)c(O)c(OC)c(C(=O)O)c1CO2` [CYATHUSCAVIN A], in assay [1], the Activity amounted to 70%. For the same compound, the pEC50 in assay [2] was 4.71; in assay [3], 4.66; in assay [4], 4.83.

`Cc1c(C)c2c(c(C)c1O)CCC(C)(C(=O)O)O2` (stereo not drawn) [TROLOX]: the figures for the pEC50 in assay [2] and in assay [4] were 4.66 and 4.93, respectively. In addition, the result in assay [3] was inactive.

Consider `C/C=C/c1cc2c(c(=O)o1)-c1c(O)c(O)c(OC)c(C(=O)O)c1C(OC)O2` (stereo not drawn) [CYATHUSCAVIN B], for which the Activity in assay [1] worked out at 90%. Moreover, the pEC50 in assay [2] is 4.86; in assay [3], 4.60; in assay [4], 5.01.

For `C/C=C/c1cc(O)cc(=O)o1`, the values for the pEC50 in assay [2] and in assay [4] were < 4.00 and < 4.30, respectively. For the same compound, the result in assay [3] was inactive.
